From US9637420B2, “Increased longevity of the nitrogen content of soil through improved liquid delivery formulations of urease inhibitors and/or nitrification inhibitors designed for urea and manure based fertilizers” (priority 2013, dated 2017)

Assay: Degradation study of 2-chloro-6-trichloromethylpyridine/NBPT in DMSO at 50° C. by LC
Assay type: physicochemical
Experimental: A degradation study was performed using 2-chloro-6-trichloromethylpyridine/nBPT in DMSO
2-chloro-6-trichloromethylpyridine/NBPT=1/1 (w/w) mixture was dissolved in DMSO. LC's were done to analyze the content decrease along with time. All samples were sealed and protected under N2. All sample were stored 50° C.
C18 column, 255 nm. Retention time: 40 min. temperature: 30° C. 15 μL injection. Peak area percentage were calculated to analyze the concentration.

SMILES | content of active, LC peak area percentage (week 1) | content of active, LC peak area percentage (week 2) | content of active, LC peak area percentage (week 3) | content of active, LC peak area percentage (week 4) | content of active, LC peak area percentage (week 6) | content of active, LC peak area percentage (week 7) | content of active, LC peak area percentage (week 8) | content of active, LC peak area percentage (week 9) | content of active, LC peak area percentage (week 10) | content of active, LC peak area percentage (week 11) | content of active, LC peak area percentage (week 12) | content of active, LC peak area percentage (week 13) | content of active, LC peak area percentage (week 14) | content of active, LC peak area percentage (week 15) | content of active, LC peak area percentage (week 16) | content of active, LC peak area percentage (week 17) | content of active, LC peak area percentage (week 18)
Clc1cccc(C(Cl)(Cl)Cl)n1 [2-chloro-6-trichloromethylpyridine] | 100 peak area percentage | 99 peak area percentage | 99.4 peak area percentage | 98.3 peak area percentage | 95.3 peak area percentage | 93.2 peak area percentage | 92.3 peak area percentage | 90.8 peak area percentage | 88 peak area percentage | 86.7 peak area percentage | 86.4 peak area percentage | 85 peak area percentage | 84.33 peak area percentage | 83.56 peak area percentage | 81.45 peak area percentage | 81 peak area percentage | 80.09 peak area percentage
CCCCNP(N)(N)=S [n-butylthiophosphoric triamide] | 100 peak area percentage | 99.6 peak area percentage | 98 peak area percentage | 97.6 peak area percentage | 96.5 peak area percentage | 95.3 peak area percentage | 94.7 peak area percentage | 93 peak area percentage | 92.2 peak area percentage | 92.1 peak area percentage | 91.7 peak area percentage | 91 peak area percentage | 90.88 peak area percentage | 90.01 peak area percentage | 99.55 peak area percentage | 89.06 peak area percentage | 88.6 peak area percentage
